For one assay, the system named is MDA-MB-231. In words: normalised response (% of control), CellTox Green; higher = less cell death (100 = DMSO, 0 = benzethonium chloride kill control). To be noted: incubation time: 72 h. In outline:
(§1)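 CellTox Green fluorescence (485/520 nm) and, after 10 min at room temperature, CellTiter-Glo luminescence were read from breast cancer cell lines incubated 72 h in 384-well plates. Cells were seeded as 20 µl suspension onto compound at 5 concentrations in 10-fold steps over a 10,000-fold range chosen per compound. Each plate was normalised to 0.1 % DMSO (100) and a positive kill control (0). Values are normalised signals, one per concentration.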

The next assay has as its system MDA-MB-468. The description is as above. Conditions: incubation time: 72 h. Put shortly:
as §1

Assay [1] has as its system HCC1599. The assay is described as above. Conditions: incubation time: 72 h. In outline:
as §1

Assay [2] has as its system CAL-85-1. Described as above. Conditions: incubation time: 72 h. In outline:
as §1

In assay [3] the test system is HCC1937. The assay is described as above. To be noted: incubation time: 72 h. Put shortly: as §1
Assay [4] relates to CAL-51. The description is as above. Conditions: incubation time: 72 h. In outline:
as §1

Assay [5] relates to HDQ-P1. Described as above. Conditions: incubation time: 72 h. In outline: as §1
The subject of assay [6] is DU-4475. Described as above. To be noted: incubation time: 72 h. In outline: as §1
The subject of the next assay is MFM-223. Described as above. To be noted: incubation time: 72 h. In outline:
as §1

Assay [7] deals with MDA-MB-453. The assay is described as above. Conditions: incubation time: 72 h. In outline: as §1
For another assay, the system named is HCC1143. The assay is described as above. Conditions: incubation time: 72 h. In outline:
as §1

Assay [8] relates to MDA-MB-436. Described as above. Conditions: incubation time: 72 h. Put shortly:
as §1

For assay [9], the system named is CAL-148. The assay is described as above. Conditions: incubation time: 72 h. In outline: as §1
The next assay concerns MCF-10A. Described as above. To be noted: incubation time: 72 h. In outline: as §1
In assay [10] the test system is BT-474. The description is as above. Conditions: incubation time: 72 h. In outline: as §1
The subject of the next assay is BT-549. Described as above. To be noted: incubation time: 72 h. Put shortly: as §1
In assay [11] the test system is CAL-120. Described as above. Conditions: incubation time: 72 h. Put shortly:
as §1

The test system of a further assay is Hs578T. The experiment in a line: normalised viability (% of control), CellTiter-Blue; higher = more viable cells (about 100 = DMSO control). Conditions: 10 nM; incubation time: 72 h. The procedure: (§2)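 DSRT, CellTiter-Blue viability, 72 h incubation. Signal is normalised to DMSO and benzethonium chloride controls. Value is the normalised response at dose 3.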
In general terms: The colour change of resazurin is a common sign of viable cells or microbes.

In assay [12] the test system is HCC1599. Described as above. Conditions: 10 nM; incubation time: 72 h. How it is done:
as §2

Assay [13] has as its system CAL-85-1. Described as above. To be noted: 1 nM; incubation time: 72 h. The procedure:
as §2

The test system of assay [14] is HCC1937. The assay is described as above. Conditions: 10 nM; incubation time: 72 h. The procedure: as §2
Assay [15] has as its system CAL-51. Described as above. Conditions: 1 nM; incubation time: 72 h. How it is done: as §2
Assay [16] has as its system HDQ-P1. Described as above. Conditions: 1 nM; incubation time: 72 h. The procedure: as §2
In assay [17] the test system is DU-4475. The assay is described as above. Conditions: 1 nM; incubation time: 72 h. The procedure: as §2
Assay [18] deals with MDA-MB-453. The description is as above. To be noted: 1 nM; incubation time: 72 h. How it is done: as §2
Assay [19] has as its system MDA-MB-436. The assay is described as above. Conditions: 10 nM; incubation time: 72 h. The procedure:
as §2

Assay [20] deals with CAL-148. The assay is described as above. To be noted: 1 nM; incubation time: 72 h. How it is done:
as §2

The subject of assay [21] is BT-474. Described as above. Conditions: 10 nM; incubation time: 72 h. The procedure:
as §2

For assay [22], the system named is CAL-120. The description is as above. Conditions: 10 nM; incubation time: 72 h. How it is done:
as §2

“And” between values parts separate entries of the source, which are not always exact repeats. Equal values may be shown once.

As to `Cc1ccc(Nc2nccc(N(C)c3ccc4c(C)n(C)nc4c3)n2)cc1S(N)(=O)=O` [Pazopanib] (1000 nM), the normalised response was found to be 99.5% with MDA-MB-231; 50% in the assay with MDA-MB-468; 105% in the assay on HCC1599 [1]; 101% in the assay with CAL-85-1 [2]; 101% in the assay on HCC1937 [3]; 107% with CAL-51 [4]. Further, the normalised response with HDQ-P1 [5] stood at 94.3%; in the assay on DU-4475 [6] it was 100%; in the assay on MFM-223 it was 102%; in the assay with MDA-MB-453 [7] it was 95.2%; with HCC1143, 99.3%; with MDA-MB-436 [8], 64.8%. Further, the normalised response in the assay on CAL-148 [9] worked out at 106%; in the assay on MCF-10A, 77%; in the assay on BT-474 [10], 104%; in the assay with BT-549 it was 127%; in the assay with CAL-120 [11] it was 101%.

Consider `Cc1ccc(Nc2nccc(N(C)c3ccc4c(C)n(C)nc4c3)n2)cc1S(N)(=O)=O` [Pazopanib] (10000 nM), for which the normalised response turned out to be 99.7% in the assay with MDA-MB-231; 162% in the assay with MDA-MB-468; 100% in the assay on HCC1599 [1]; 78.9% in the assay with CAL-85-1 [2]; 85.7% in the assay with HCC1937 [3]; 76.9% in the assay with CAL-51 [4]. Further, the normalised response with HDQ-P1 [5] came to 111%; in the assay with DU-4475 [6], 104%; in the assay with MFM-223, 96.1%; with MDA-MB-453 [7], 102%; in the assay on HCC1143, 55.8%; in the assay with MDA-MB-436 [8], 96.9%. Besides, the normalised response stood at 100% in the assay with CAL-148 [9]; 94.8% with MCF-10A; 99.5% in the assay with BT-474 [10]; 119% in the assay on BT-549; 94% with CAL-120 [11].

Consider `C[C@]12C=CC(=O)C=C1CC[C@@H]1[C@@H]2[C@@H](O)C[C@@]2(C)[C@H]1CC[C@]2(O)C(=O)CO` [Prednisolone] (10000 nM), for which the normalised response with MDA-MB-231 worked out at 150%; with MDA-MB-468, 154%; with HCC1599 [1] it was 97.9%; in the assay with CAL-85-1 [2] it was 84.1%; in the assay on HCC1937 [3] it was 56.3%; in the assay with CAL-51 [4], 102%. The normalised response in the assay on HDQ-P1 [5] worked out at 57.2%; with DU-4475 [6] it was 100%; in the assay with MFM-223, 99.7%; in the assay with MDA-MB-453 [7] it was 94.6%; with HCC1143, 51%; with MDA-MB-436 [8] it was 60.2%. In addition, the normalised response is 101% in the assay on CAL-148 [9]; 100% in the assay with MCF-10A; 101% in the assay on BT-474 [10]; 90.8% in the assay with BT-549; 99.8% in the assay on CAL-120 [11].

In the case of `CNC(=O)c1cc(Oc2ccc(NC(=O)Nc3ccc(Cl)c(C(F)(F)F)c3)cc2)ccn1` [Sorafenib], the normalised viability in the assay with Hs578T is 90% and 86.3%; in the assay with HCC1599 [12] it was 113% and 129%; in the assay with CAL-85-1 [13] it was 96.3% and 109%; in the assay with HCC1937 [14] it was 83.9% and 84.5%; with CAL-51 [15], 114% and 99%; in the assay on HDQ-P1 [16] it was 105% and 91.4%. For the same compound, the normalised viability is 118% and 131% in the assay with DU-4475 [17]; 103% and 109% in the assay on MDA-MB-453 [18]; 110% and 113% with MDA-MB-436 [19]; 102% and 90% with CAL-148 [20]; 114% and 99.3% in the assay on BT-474 [21]; 102% and 96% in the assay on CAL-120 [22].

For the compound `CNC(=O)c1cc(Oc2ccc(NC(=O)Nc3ccc(Cl)c(C(F)(F)F)c3)cc2)ccn1` [Sorafenib] (100 nM), the normalised response is 101% with MDA-MB-231; 118% with MDA-MB-468; 93.7% in the assay with HCC1599 [1]; 107% with CAL-85-1 [2]; 92% with HCC1937 [3]; 87% in the assay with CAL-51 [4]. For the same compound, the normalised response worked out at 67.2% in the assay with HDQ-P1 [5]; 99.9% in the assay with DU-4475 [6]; 101% in the assay with MFM-223; 95.1% in the assay on MDA-MB-453 [7]; 83.6% in the assay on HCC1143; 105% in the assay with MDA-MB-436 [8]. Further, the normalised response in the assay with CAL-148 [9] is 73%; in the assay on MCF-10A, 99.8%; in the assay with BT-474 [10], 96.8%; in the assay with BT-549, 114%; with CAL-120 [11] it was 99.5%.

Regarding `CNC(=O)c1cc(Oc2ccc(NC(=O)Nc3ccc(Cl)c(C(F)(F)F)c3)cc2)ccn1` [Sorafenib] (1000 nM), the normalised response with MDA-MB-231 came to 100%; with MDA-MB-468, 70.1%; in the assay with HCC1599 [1], 97.5%; in the assay with CAL-85-1 [2], 89.9%; with HCC1937 [3], 99.2%; in the assay with CAL-51 [4], 115%. The normalised response with HDQ-P1 [5] worked out at 103%; with DU-4475 [6], 97.7%; in the assay on MFM-223 it was 92.8%; in the assay with MDA-MB-453 [7], 102%; with HCC1143 it was 101%; in the assay with MDA-MB-436 [8], 87.5%. The normalised response with CAL-148 [9] turned out to be 74.5%; in the assay with MCF-10A it was 89%; with BT-474 [10] it was 100%; with BT-549 it was 111%; with CAL-120 [11], 101%.

For the compound `CCN(CC)CCNC(=O)c1c(C)[nH]c(/C=C2\C(=O)Nc3ccc(F)cc32)c1C` [Sunitinib] (100 nM), the normalised response in the assay on MDA-MB-231 came to 123%; in the assay on MDA-MB-468, 102%; with HCC1599 [1], 106%; in the assay on CAL-85-1 [2], 99.8%; in the assay on HCC1937 [3], 114%; with CAL-51 [4], 86.5%. The normalised response in the assay on HDQ-P1 [5] was found to be 76.8%; in the assay with DU-4475 [6], 98.1%; in the assay on MFM-223 it was 101%; in the assay on MDA-MB-453 [7] it was 102%; in the assay on HCC1143, 107%; in the assay with MDA-MB-436 [8], 97.1%. Moreover, the normalised response is 86% in the assay on CAL-148 [9]; 108% in the assay with MCF-10A; 103% in the assay on BT-474 [10]; 127% with BT-549; 98.3% in the assay on CAL-120 [11].

`CCN(CC)CCNC(=O)c1c(C)[nH]c(/C=C2\C(=O)Nc3ccc(F)cc32)c1C` [Sunitinib] (1000 nM): the normalised response in the assay with MDA-MB-231 turned out to be 124%; in the assay on MDA-MB-468 it was 66.4%; in the assay on HCC1599 [1], 105%; in the assay with CAL-85-1 [2] it was 66.5%; with HCC1937 [3], 93.9%; in the assay on CAL-51 [4], 106%. Besides, the normalised response with HDQ-P1 [5] stood at 101%; in the assay on DU-4475 [6], 99.7%; in the assay with MFM-223 it was 99.2%; with MDA-MB-453 [7], 104%; in the assay on HCC1143 it was 82.8%; in the assay on MDA-MB-436 [8], 106%. For the same compound, the normalised response came out at 85.4% in the assay with CAL-148 [9]; 80.6% in the assay on MCF-10A; 95% in the assay with BT-474 [10]; 104% with BT-549; 98.2% with CAL-120 [11].

On to `CC[C@@]1(O)C(=O)OCc2c1cc1n(c2=O)Cc2cc3c(CN(C)C)c(O)ccc3nc2-1` [Topotecan] (100 nM), for which the normalised response worked out at 108% in the assay on MDA-MB-231; 91.8% in the assay on MDA-MB-468; 90.7% in the assay on HCC1599 [1]; 100% with CAL-85-1 [2]; 52.5% in the assay on HCC1937 [3]; 65% with CAL-51 [4]. The normalised response in the assay on HDQ-P1 [5] was 103%; in the assay with DU-4475 [6], 94.9%; with MFM-223 it was 98%; in the assay with MDA-MB-453 [7] it was 108%; with HCC1143, 74.7%; in the assay on MDA-MB-436 [8], 76.5%. Moreover, the normalised response in the assay on CAL-148 [9] turned out to be 37.6%; with MCF-10A, 106%; with BT-474 [10], 103%; in the assay on BT-549 it was 92.8%; in the assay with CAL-120 [11], 98.9%.

For the origin of these results see the supplement of paper PMC4862054.
